In the supplement of paper PMC10307832:

How the values were obtained:
Test in all cases: relative viability (nuclei count vs DMSO), 5 days (fraction); higher = more cells survive
VE-821 + AZD7762 = compound: CS(=O)(=O)c1ccc(-c2cnc(N)c(C(=O)Nc3ccccc3)n2)cc1 [VE-821] + NC(=O)Nc1cc(-c2cccc(F)c2)sc1C(=O)N[C@H]1CCCNC1 [AZD7762] (partner 0.2 µM)
Procedure, shortened: (§1)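 Lung cancer cell lines, seeded in 1536-well plates, were treated the following day by pin tool with a single drug or with five library-drug doses (not always all listed) in √10 steps on top of a fixed anchor-drug dose. Cells were fixed and nuclei stained in one step after 5 days, and nuclei were counted. Relative viability is the nuclei count for treated wells divided by that for vehicle wells, reported as medians of duplicate plates.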

VE-821 + Lapatinib = compound: CS(=O)(=O)c1ccc(-c2cnc(N)c(C(=O)Nc3ccccc3)n2)cc1 [VE-821] + CS(=O)(=O)CCNCc1ccc(-c2ccc3ncnc(Nc4ccc(OCc5cccc(F)c5)c(Cl)c4)c3c2)o1 [Lapatinib] (partner 2 µM)
Procedure, shortened: as §1

Ruxolitinib + Pictilisib = compound: N#CC[C@H](C1CCCC1)n1cc(-c2ncnc3[nH]ccc23)cn1 [Ruxolitinib] + CS(=O)(=O)N1CCN(Cc2cc3nc(-c4cccc5[nH]ncc45)nc(N4CCOCC4)c3s2)CC1 [Pictilisib] (partner 1 µM)
Procedure, shortened: as §1

VE-821 + Luminespib = compound: CS(=O)(=O)c1ccc(-c2cnc(N)c(C(=O)Nc3ccccc3)n2)cc1 [VE-821] + CCNC(=O)c1noc(-c2cc(C(C)C)c(O)cc2O)c1-c1ccc(CN2CCOCC2)cc1 [Luminespib] (partner 0.01 µM)
Procedure, shortened: as §1

Row | Cell Line | relative viability (VE-821 + AZD7762; first compound 0.08 µM) | relative viability (VE-821 + AZD7762; first compound 0.253 µM) | relative viability (VE-821 + AZD7762; first compound 0.8 µM) | relative viability (VE-821 + AZD7762; first compound 2.53 µM) | relative viability (VE-821 + AZD7762; first compound 8 µM) | relative viability (VE-821 + Lapatinib; first compound 0.08 µM) | relative viability (VE-821 + Lapatinib; first compound 0.253 µM) | relative viability (VE-821 + Lapatinib; first compound 0.8 µM) | relative viability (VE-821 + Lapatinib; first compound 2.53 µM) | relative viability (VE-821 + Lapatinib; first compound 8 µM) | relative viability (Ruxolitinib + Pictilisib; first compound 0.08 µM) | relative viability (Ruxolitinib + Pictilisib; first compound 0.253 µM) | relative viability (Ruxolitinib + Pictilisib; first compound 0.8 µM) | relative viability (Ruxolitinib + Pictilisib; first compound 2.53 µM) | relative viability (Ruxolitinib + Pictilisib; first compound 8 µM) | relative viability (VE-821 + Luminespib; first compound 0.08 µM) | relative viability (VE-821 + Luminespib; first compound 0.253 µM) | relative viability (VE-821 + Luminespib; first compound 0.8 µM) | relative viability (VE-821 + Luminespib; first compound 2.53 µM) | relative viability (VE-821 + Luminespib; first compound 8 µM)
1 | NCI-H1666 | 0.753 | 0.705 | 0.798 | 0.705 | 0.713 | 0.839 | 0.57 | 0.713 | 0.623 | 0.462 | 0.384 | 0.453 | 0.483 | 0.415 | 0.611 | 1.04 | 1.01 | 1.1 | 1.03 | 0.761
2 | H3255 | 0.96 | 0.927 | 0.913 | 0.932 | 0.649 | 0.229 | 0.256 | 0.378 | 0.241 | 0.264 | 0.206 | 0.435 | 0.516 | 0.427 | 0.48 | 0.903 | 0.782 | 0.78 | 0.915 | 0.973
3 | NCI-H1793 | 0.381 | 0.267 | – | 0.252 | 0.214 | 0.868 | 0.735 | 0.642 | 1.31 | 0.815 | 0.311 | 0.409 | 0.25 | 0.38 | 0.282 | 0.155 | 0.234 | 0.175 | 0.162 | 0.121
4 | NCI-H1755 | 0.434 | 0.368 | 0.38 | 0.323 | 0.175 | 1.09 | 0.997 | 0.961 | 0.981 | 0.861 | 0.425 | 0.43 | 0.469 | 0.329 | 0.297 | 0.514 | 0.344 | 0.427 | 0.468 | 0.201
5 | LOU-NH91 | 0.796 | 0.711 | 0.823 | 0.717 | 0.681 | 0.758 | 0.821 | 0.764 | 0.697 | 0.655 | 0.477 | 0.493 | 0.524 | 0.514 | 0.56 | 0.431 | 0.366 | 0.319 | 0.345 | 0.279
6 | NCI-H1975 | 0.75 | 0.69 | 0.667 | 0.604 | 0.462 | 0.884 | 0.531 | 0.856 | 0.948 | 0.669 | 0.302 | 0.254 | 0.285 | 0.243 | 0.231 | 0.213 | 0.197 | 0.26 | 0.193 | 0.193
7 | NCI-H727 | 0.512 | 0.495 | 0.411 | 0.382 | 0.41 | 1.02 | 0.755 | 0.804 | 0.714 | 0.436 | 0.427 | 0.384 | 0.6 | 0.309 | 0.725 | 0.317 | 0.342 | 0.368 | 0.346 | 0.353
8 | CAL-12T | 0.568 | 0.514 | 0.512 | 0.352 | 0.239 | 0.656 | 0.7 | 0.637 | 0.839 | 0.456 | – | 0.355 | 0.416 | 0.435 | 0.471 | 0.655 | 0.363 | 0.4 | 0.327 | 0.137
9 | NCI-H1944 | 0.527 | 0.402 | 0.296 | 0.277 | 0.121 | 1.09 | 0.811 | 0.748 | 0.935 | 0.386 | 0.362 | 0.334 | 0.381 | 0.323 | 0.332 | 0.835 | 0.698 | 0.421 | 0.803 | 0.416
10 | RERF-LC-KJ | 0.994 | 0.975 | 0.974 | 1.03 | 0.688 | 0.92 | 0.756 | 0.798 | 0.772 | 0.715 | 0.517 | 0.447 | 0.656 | 0.53 | 0.393 | 1.31 | 1.06 | 1.06 | 1.18 | 0.931
11 | NCI-H838 | 0.944 | 0.859 | 0.771 | 0.727 | 0.692 | 1.08 | 0.99 | 0.921 | 1.11 | 0.657 | 0.464 | 0.433 | 0.402 | 0.24 | 0.278 | 0.275 | 0.225 | 0.224 | 0.266 | 0.158
